The test system of data set [1] is Mtb. Description: Fractional killing and potentiation of antimicrobials. It is filed as cell-based, Mycobacterium tuberculosis. The conditions noted are these: pH 5.7, 3 days; for reduction in bacterial growth relative to the initial inoculum, compound alone: 10 μM AC2P36 alone or 10 μM INH alone.
In another data set the test system is Mtb free thiol pools. Description: Free thiol pools in Mtb. It is filed as cell-based. The conditions noted are these: for free thiol pools relative to DMSO/untreated control: pH 7.0 and 5.7, 24 hours, 2 or 20 μM AC2P36, 20 μM auranofin, INH.
The test system of data set [2] is Mtb. The data set can be described thus: Protection from AC2P36 by ROS scavenging agents. The format is cell-based, Mycobacterium tuberculosis. The conditions noted are these: pH 5.7, dose response of scavenger, six days, OD.
The subject of a further data set is S. aureus free thiols. Description: Free thiols in S. aureus. Particulars: 20 μM, pH 5.7. The format is cell-based, Staphylococcus aureus strain Newman.
In a further data set the test system is S. aureus. The format is cell-based. Particulars: 10 – 80 μM, pH 7.0 and 5.7, 6 hours.
Data set [3] relates to Mtb. Description: Intracellular reactive oxygen species. The format is cell-based, Mycobacterium tuberculosis.
Data set [4] relates to Mtb. The data set can be described thus: Bactericidal activity of AC2P36. It is filed as cell-based, Mycobacterium tuberculosis strain CDC1551.
In data set [5] the test system is Mtb reporter strain CDC1551::roGFP-R12. The format is cell-based, Mycobacterium tuberculosis. Particulars: pH 7.0 and 5.7, 0.1 – 20 μM, 6 h.
Data set [6] deals with Mtb. The format is cell-based.
Another data set deals with Enterococcus faecalis. The format is cell-based. Particulars: neutral and acidic pH.
The test system of the next data set is Pseudomonas auruginosa. It is filed as cell-based. The conditions noted are these: neutral and acidic pH.
Data set [7] relates to Mtb. Description: Menadione sensitivity assay. Particulars: pH 5.7, dose response of AC2P36 and menadione, six days, OD. It is filed as cell-based, Mycobacterium tuberculosis.
A further data set deals with Escherichia coli. The format is cell-based. The conditions noted are these: neutral and acidic pH.
The next data set has as its system Staphylococcus aureus. The format is cell-based. The conditions noted are these: neutral and acidic pH.
A further data set concerns Mtb cytoplasmic pH. Description: Cytoplasmic pH measurement. The format is cell-based. Particulars: pH 5.7, over 24 hours.
For another data set, the system named is Proteus vulgaris. The format is cell-based. The conditions noted are these: neutral and acidic pH.
The next data set has as its system S. aureus (ΔsodAΔsodM). The format is cell-based. The conditions noted are these: pH 7.0 and 5.7.
The nature of the next data set: in vitro. The format is cell-based. The conditions noted are these: mouse.

A word on the CC50: it is the concentration giving 50% cytotoxicity. A high value points to better tolerance by the cells.

Entries after “also recorded” stand apart in the source; their conditions may differ.

As for `CC(C)/N=c1\cc2n(-c3ccc(Cl)cc3)c3ccccc3nc-2cc1Nc1ccc(Cl)cc1` [Clofazimine, clofazimine, reference compound], the “effect on Mtb growth, compound alone” value in the data set on Mtb [1] (100 μM clofazimine alone) was “did not impact Mtb growth”.

As to `NNC(=O)c1ccncc1` [INH, isoniazid, reference compound], the “free thiol pools relative to DMSO/untreated control” value in the data set on Mtb free thiol pools is listed as “comparable thiol concentrations as the untreated cultures”. Moreover, the “reduction in bacterial growth relative to the initial inoculum, compound alone” value with Mtb [1] is recorded as “approximately 2 fold”.

For `CC(=O)N[C@@H](CS)C(=O)O` [NAC, N-acetylcysteine], in the data set on Mtb [2], the “protection of Mtb from 32 μM AC2P36” value is recorded as “protects Mtb from killing by 32 μM AC2P36 in a dose dependent manner”.

Turning to `CC(=O)OC[C@H]1O[C@@H]([S-])[C@H](OC(C)=O)[C@@H](OC(C)=O)[C@@H]1OC(C)=O.CCP(CC)CC.[Au+]` [auranofin, reference compound], in the data set with S. aureus free thiols, the “reduction in free thiols in S. aureus” value is recorded as ~ 30%. For the same molecule, in the data set on Mtb free thiol pools, the “free thiol pools relative to DMSO/untreated control” value is listed as “depleted free thiols relative to the DMSO treated control”.

As for `O[C@@H](CS)[C@@H](O)CS` (racemic) [DTT, Dithiothreitol, reference compound], in the data set on S. aureus, the “ROS accumulation in S. aureus” value is on record as “had no effect on ROS accumulation”.

Regarding `CN(C)C(=O)/N=N/C(=O)N(C)C` [diamide, reference compound], the “accumulation of intracellular ROS” value with Mtb [3] (20 μM diamide, neutral pH) is listed as “resists diamide treatment”; in the data set with Mtb [3] (20 μM diamide, pH 5.7) it was “significant increase in ROS”. Moreover, the “enhancement in bacterial growth relative to the initial inoculum, compound alone” value in the data set with Mtb [1] (1 mM diamide alone) came out at 1.8 fold.

In the case of `COc1ccc(NC(=O)c2nc(S(C)(=O)=O)ncc2Cl)cc1Cl` [AC2P36, 5-chloro-N-(3-chloro-4-methoxyphenyl)-2-methylsulfonylpyrimidine-4-carboxamide], the “reduction of viability relative to the DMSO treated control” value in the data set with Mtb [4] (20 μM AC2P36, pH 5.7, by 7 days) is given as ~ 100 fold. Besides, the “concentrations at which bactericidal activity is observed” value in the data set on Mtb [4] (pH 5.7, 6 days of treatment) is above 10 µM. For the same molecule, in data set [5], the “cytoplasmic redox status (roGFP)” value was “leads to a reduced cytoplasm in a dose-dependent and pH-independent manner; also recorded: promotes a reduced cytoplasm in a dose-dependent and pH-independent manner”. Further, in the data set on S. aureus free thiols, the “reduction in free thiols in S. aureus” value is reported as ~ 30%. Also, in the data set with Mtb [6], the “selectivity at acidic pH (pH 5.7 vs pH 7.0 EC50)” value is recorded as ~ 10 fold. Further, the “concentrations at which Mtb growth is slowed/inhibited at neutral pH” value with Mtb [6] (pH 7.0) is reported as above 30 μM. Also, the “susceptibility of E. faecalis to AC2P36” value in the data set on Enterococcus faecalis is recorded as “exhibit susceptibility to AC2P36”. The “susceptibility of P. aeruginosa to AC2P36” value in the data set on Pseudomonas auruginosa is on record as “relatively unaffected”. The “depletion of free thiols vs DMSO treated samples” value with Mtb free thiol pools (20 μM AC2P36, pH 5.7, 24 hours) was ~ 16 fold. In addition, the “free thiol concentration after treatment” value in the data set on Mtb free thiol pools (20 μM AC2P36, pH 5.7, 24 hours (DMSO ~1.3 μM)) is given as ~ 80 nM. Also, the “reduction of free thiols” value with Mtb free thiol pools (20 μM AC2P36, pH 7.0, 24 hours) is on record as “reduced by one third”. For the same molecule, the “free thiol pools relative to DMSO/untreated control” value in the data set on Mtb free thiol pools is “significantly depleted thiol pools at both pH 7.0 and 5.7”. For the same molecule, in the data set on Mtb [7], the synergy with menadione entry is recorded as “did not synergize”. Moreover, in the data set on Escherichia coli, the “susceptibility of E. coli to AC2P36” value is “relatively unaffected”. Further, in the data set on Staphylococcus aureus, the “susceptibility of S. aureus to AC2P36” value is given as “exhibit susceptibility to AC2P36”. The “ROS accumulation in S. aureus” value in the data set on S. aureus was “enhanced ROS accumulation in a dose-dependent manner”. In the data set on Mtb cytoplasmic pH, the “effect on Mtb cytoplasmic pH” value is recorded as “does not modulate Mtb cytoplasmic pH”. Besides, in the data set on Mtb [3] (2 or 20 μM AC2P36, pH 7.0 and 5.7, 24 hours), the “accumulation of intracellular ROS” value is “dose-dependent and pH-dependent accumulation of reactive oxygen species; also recorded: significant induction of ROS”. The “susceptibility of P. vulgaris to AC2P36” value with Proteus vulgaris is “relatively unaffected”. The “enhanced sensitivity of S. aureus (ΔsodAΔsodM) to AC2P36 compared to WT” value in the data set with S. aureus (ΔsodAΔsodM) was ~ 2 fold. Also, in “in vitro”, the CC50 at 3 days is 17 µM. In addition, in the data set with Mtb [1] (10 μM AC2P36 + 0.3 μM rifampin), the “synergy/potentiation in combination with rifampin” value is listed as “no significant synergy; also recorded: No potentiation was observed”. For the same molecule, the “reduction in bacterial growth relative to the initial inoculum, compound alone” value in the data set on Mtb [1] is “approximately 2 fold”.

The record behind these values is PMC5562523 (Cell chemical biology, 2017).
